Results reported in publication PMC3844902 (British Journal of Cancer, 2013).

Assay: Safety and tolerability
Assay type: in vivo, Japanese patients
Conditions: just after meals, in combination with erlotinib 150 mg QD

O=C1NC(=O)[C@@H](c2cn3c4c(cccc24)CCC3)[C@@H]1c1c[nH]c2ccccc12 [tivantinib]
Recommended phase II dose (RP2D) of tivantinib (Japanese EMs): 360 mg BID | Recommended phase II dose (RP2D) of tivantinib (Japanese PMs): 240 mg BID
